Test results reported in PubChem BioAssay AID330 (DTP/NCI, 2004).
Where “and” joins values, the source holds several entries; their conditions need not be identical. Equal values may be shown once. Toxic doses and inconclusive results are not listed. Rule for the calls: active = survival T/C of 150% or more; inactive = T/C below 125% in these data.

Test system: P388 leukemia ip, CD2F1 mice, survival T/C
Assay: NCI In Vivo Anticancer Drug Screen. Data for tumor model P388 Leukemia (intraperitoneal) in CD2F1 (CDF1) mice
Conditions: endpoint: median survival time, higher = longer survival
Outline: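 Mice carrying the transplanted tumor received test compound or vehicle. Survival was recorded in each group, and the value is the treated-group measurement divided by that of the vehicle-treated control group.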

[1] = dose: 50.0 mg/kg/injection, schedule: Q01DX009 (ip), vehicle: saline
[2] = dose: 100.0 mg/kg/injection, schedule: Q01DX009 (ip), vehicle: saline
[3] = dose: 200.0 mg/kg/injection, schedule: Q01DX009 (ip), vehicle: saline
[4] = dose: 50.0 mg/kg/injection, schedule: Q01DX009 (ip), vehicle: saline with Tween-80
[5] = dose: 100.0 mg/kg/injection, schedule: Q01DX009 (ip), vehicle: saline with Tween-80
[6] = dose: 200.0 mg/kg/injection, schedule: Q01DX009 (ip), vehicle: saline with Tween-80
[7] = dose: 60.0 mg/kg/injection, schedule: Q01DX005 (ip), vehicle: saline with Tween-80
[8] = dose: 120.0 mg/kg/injection, schedule: Q01DX005 (ip), vehicle: saline with Tween-80
[9] = dose: 240.0 mg/kg/injection, schedule: Q01DX005 (ip), vehicle: saline with Tween-80
[10] = dose: 50.0 mg/kg/injection, schedule: Q01DX005 (ip), vehicle: Klucel (hydroxypropylcellulose) (HPC)
[11] = dose: 100.0 mg/kg/injection, schedule: Q01DX005 (ip), vehicle: Klucel (hydroxypropylcellulose) (HPC)
[12] = dose: 200.0 mg/kg/injection, schedule: Q01DX005 (ip), vehicle: Klucel (hydroxypropylcellulose) (HPC)
[13] = dose: 100.0 mg/kg/injection, schedule: Q04DX002 (ip), vehicle: Klucel (hydroxypropylcellulose) (HPC)
[14] = dose: 200.0 mg/kg/injection, schedule: Q04DX002 (ip), vehicle: Klucel (hydroxypropylcellulose) (HPC)
[15] = dose: 60.0 mg/kg/injection, schedule: Q01DX005 (ip), vehicle: Klucel (hydroxypropylcellulose) (HPC)
[16] = dose: 120.0 mg/kg/injection, schedule: Q01DX005 (ip), vehicle: Klucel (hydroxypropylcellulose) (HPC)
[17] = dose: 240.0 mg/kg/injection, schedule: Q01DX005 (ip), vehicle: Klucel (hydroxypropylcellulose) (HPC)
[18] = dose: 3.13 mg/kg/injection, schedule: Q01DX009 (ip), vehicle: Klucel (hydroxypropylcellulose) (HPC)
[19] = dose: 6.25 mg/kg/injection, schedule: Q01DX009 (ip), vehicle: Klucel (hydroxypropylcellulose) (HPC)
[20] = dose: 12.5 mg/kg/injection, schedule: Q01DX009 (ip), vehicle: Klucel (hydroxypropylcellulose) (HPC)
[21] = dose: 25.0 mg/kg/injection, schedule: Q01DX009 (ip), vehicle: Klucel (hydroxypropylcellulose) (HPC)
[22] = dose: 50.0 mg/kg/injection, schedule: Q01DX009 (ip), vehicle: Klucel (hydroxypropylcellulose) (HPC)

Measured: T/C

O=C1NC(=O)[C@H]2C3C=CC([C@@H]12)[C@@H]1C(=O)NC(=O)[C@H]31
inactive: dose: 25.0 mg/kg/injection, schedule: Q01DX009 (ip), vehicle: water 105 % of control | dose: 50.0 mg/kg/injection, schedule: Q01DX009 (ip), vehicle: water 100 % of control | dose: 100.0 mg/kg/injection, schedule: Q01DX009 (ip), vehicle: water 97 % of control | dose: 200.0 mg/kg/injection, schedule: Q01DX009 (ip), vehicle: water 92 % of control

CNC(=O)N(Cl)c1ccc(Cl)cc1
inactive: [1] 98 % of control | [2] 96 % of control | [3] 97 % of control

CC1(C(Cl)(Cl)Cl)C=CC(=O)C=C1
inactive: [4] 99 % of control | [5] 107 % of control | [6] 99 % of control

CCN(CC)CCOC(=O)Nc1cc(Cl)cc(Cl)c1
inactive: [7] 100 % of control | [8] 101 % of control | [9] 100 % of control

C(=C\c1ccc2c(c1)OCO2)/c1ccncc1
inactive: dose: 25.0 mg/kg/injection, schedule: Q01DX005 (ip), vehicle: Klucel (hydroxypropylcellulose) (HPC) 102 % of control | [10] 94 % of control and 102 % of control | [11] 95 % of control and 101 % of control | [12] 100 % of control and 90 % of control

CCCCCCCCCCCCCCCc1ccc(OC)cc1
inactive: dose: 7.5 mg/kg/injection, schedule: Q01DX009 (ip), vehicle: saline with Tween-80 90 % of control | dose: 15.0 mg/kg/injection, schedule: Q01DX009 (ip), vehicle: saline with Tween-80 94 % of control | dose: 30.0 mg/kg/injection, schedule: Q01DX009 (ip), vehicle: saline with Tween-80 104 % of control

C[C@]12CC[C@@H]3c4ccc(O)cc4CC[C@H]3[C@@H]1C[C@@H](O)[C@@H]2O
inactive: [1] 112 % of control | [2] 100 % of control | [3] 100 % of control | dose: 400.0 mg/kg/injection, schedule: Q01DX009 (ip), vehicle: saline 91 % of control

O=C(Cc1ccccc1)c1c[nH]c2c(O)ccc(O)c12
inactive: dose: 50.0 mg/kg/injection, schedule: Q04DX002 (ip), vehicle: Klucel (hydroxypropylcellulose) (HPC) 104 % of control | [13] 108 % of control | [14] 111 % of control

COc1ccc2c(c1)CN(Cc1ccccc1)CO2
inactive: [7] 104 % of control | [8] 105 % of control | [9] 102 % of control

O=C(Oc1ccc[nH]c1=O)c1ccccc1
inactive: dose: 37.5 mg/kg/injection, schedule: Q01DX009 (ip), vehicle: saline 108 % of control and 98 % of control | dose: 75.0 mg/kg/injection, schedule: Q01DX009 (ip), vehicle: saline 101 % of control and 105 % of control | dose: 150.0 mg/kg/injection, schedule: Q01DX009 (ip), vehicle: saline 107 % of control | dose: 300.0 mg/kg/injection, schedule: Q01DX009 (ip), vehicle: saline 101 % of control and 110 % of control | dose: 600.0 mg/kg/injection, schedule: Q01DX009 (ip), vehicle: saline 101 % of control and 107 % of control

CCCCCCCCCCCC(=O)c1c(O)cc(C)oc1=O
inactive: [15] 100 % of control | [16] 98 % of control | [17] 105 % of control

Nc1cc(S(=O)(=O)O)cc2cc(S(=O)(=O)O)cc(O)c12
inactive: [15] 96 % of control | [16] 98 % of control | [17] 95 % of control

Cc1ccc(NC2SC(=O)N(Cc3ccccc3)/C2=N/N=C2\C(Nc3ccc(C)cc3)SC(=O)N2Cc2ccccc2)cc1 (stereo unspecified)
inactive: [13] 97 % of control | [14] 97 % of control | dose: 400.0 mg/kg/injection, schedule: Q04DX002 (ip), vehicle: Klucel (hydroxypropylcellulose) (HPC) 97 % of control

O=S(=O)(O)c1cc(O)c2c(N=Cc3ccccc3O)c(S(=O)(=O)O)ccc2c1
inactive: [7] 98 % of control | [8] 97 % of control | [9] 95 % of control

COC(=O)[C@]1(C)CCC[C@]2(C)c3ccc(C(C)C)cc3C(=O)C[C@@H]12
inactive: [7] 95 % of control | [8] 94 % of control | [9] 93 % of control

Oc1ccc(O)c(/C=N/NC(=S)NC2CC3CC2C2C=CCC32)c1 (stereo unspecified)
inactive: dose: 12.5 mg/kg/injection, schedule: Q01DX009 (ip), vehicle: olive oil, sesame oil, peanut oil 90 % of control | dose: 25.0 mg/kg/injection, schedule: Q01DX009 (ip), vehicle: olive oil, sesame oil, peanut oil 102 % of control | dose: 50.0 mg/kg/injection, schedule: Q01DX009 (ip), vehicle: olive oil, sesame oil, peanut oil 102 % of control | dose: 100.0 mg/kg/injection, schedule: Q01DX009 (ip), vehicle: olive oil, sesame oil, peanut oil 98 % of control | dose: 200.0 mg/kg/injection, schedule: Q01DX009 (ip), vehicle: olive oil, sesame oil, peanut oil 105 % of control

COc1ccc(C(=O)/C=C/c2ccc3cc(OC)c(OC)cc3c2)cc1OC
inactive: [18] 103 % of control | [19] 100 % of control | [20] 106 % of control | [21] 106 % of control | [22] 98 % of control

CSc1ncn(C)c1C(N)=O
inactive: [10] 97 % of control | [11] 99 % of control | [12] 99 % of control

O=C1c2ccccc2C(=O)C1NOCCCCl
inactive: [15] 100 % of control | [16] 99 % of control | [17] 101 % of control

COc1ccc(C(N)=O)cc1N=NN(C)C
inactive: dose: 3.12 mg/kg/injection, schedule: Q01DX009 (ip), vehicle: Klucel (hydroxypropylcellulose) (HPC) 103 % of control | [18] 103 % of control | [19] 98 % of control | [20] 107 % of control and 114 % of control | [21] 121 % of control and 123 % of control | [22] 118 % of control and 94 % of control

CC(C)NC(=O)OCc1cc(-c2ccccc2)n(C)c1-c1ccccc1
inactive: dose: 6.25 mg/kg/injection, schedule: Q01DX009 (ip), vehicle: distilled water + Tween-80 104 % of control and 98 % of control | dose: 12.5 mg/kg/injection, schedule: Q01DX009 (ip), vehicle: distilled water + Tween-80 107 % of control and 110 % of control and 113 % of control | dose: 25.0 mg/kg/injection, schedule: Q01DX009 (ip), vehicle: distilled water + Tween-80 117 % of control and 120 % of control and 122 % of control | dose: 50.0 mg/kg/injection, schedule: Q01DX009 (ip), vehicle: distilled water + Tween-80 105 % of control and 114 % of control and 116 % of control | dose: 100.0 mg/kg/injection, schedule: Q01DX009 (ip), vehicle: distilled water + Tween-80 92 % of control

Nc1nc(Nc2ccccc2)nc(-c2ccccc2)n1
inactive: dose: 50.0 mg/kg/injection, schedule: Q01DX005 (ip), vehicle: saline with Tween-80 100 % of control | dose: 100.0 mg/kg/injection, schedule: Q01DX005 (ip), vehicle: saline with Tween-80 86 % of control

CC1=C(C(=O)Nc2ccccc2)C(c2ccccc2)C(C(=O)Nc2ccccc2)=C(C)N1
inactive: dose: 100.0 mg/kg/injection, schedule: Q04DX002 (ip), vehicle: saline with Tween-80 95 % of control | dose: 200.0 mg/kg/injection, schedule: Q04DX002 (ip), vehicle: saline with Tween-80 94 % of control | dose: 400.0 mg/kg/injection, schedule: Q04DX002 (ip), vehicle: saline with Tween-80 94 % of control

C/C(=N\Nc1ccc([N+](=O)[O-])cc1[N+](=O)[O-])C1CC1
inactive: dose: 25.0 mg/kg/injection, schedule: Q01DX009 (ip), vehicle: saline with Tween-80 117 % of control | [4] 106 % of control | [5] 108 % of control | [6] 109 % of control

O=C(CC(O)(C(F)(F)F)C(F)(F)F)c1ccco1
inactive: dose: 33.0 mg/kg/injection, schedule: Q01DX009 (ip), vehicle: saline with Tween-80 110 % of control

O=C(CCC(=O)Nc1ccc(Cl)cc1Cl)CC(=O)c1ccco1
inactive: [7] 102 % of control | [8] 105 % of control | [9] 102 % of control

O=C(OCc1ccccc1)n1nnc2ccccc21
inactive: [7] 113 % of control | [8] 105 % of control | [9] 111 % of control

Oc1ccccc1C=Nc1ccc(Cl)cn1
inactive: [1] 99 % of control | [2] 100 % of control | [3] 107 % of control
